# Molecular target: T1, D(4) dopamine receptor (Homo sapiens) (UniProt P21917)
# T1 sequence (whole entry): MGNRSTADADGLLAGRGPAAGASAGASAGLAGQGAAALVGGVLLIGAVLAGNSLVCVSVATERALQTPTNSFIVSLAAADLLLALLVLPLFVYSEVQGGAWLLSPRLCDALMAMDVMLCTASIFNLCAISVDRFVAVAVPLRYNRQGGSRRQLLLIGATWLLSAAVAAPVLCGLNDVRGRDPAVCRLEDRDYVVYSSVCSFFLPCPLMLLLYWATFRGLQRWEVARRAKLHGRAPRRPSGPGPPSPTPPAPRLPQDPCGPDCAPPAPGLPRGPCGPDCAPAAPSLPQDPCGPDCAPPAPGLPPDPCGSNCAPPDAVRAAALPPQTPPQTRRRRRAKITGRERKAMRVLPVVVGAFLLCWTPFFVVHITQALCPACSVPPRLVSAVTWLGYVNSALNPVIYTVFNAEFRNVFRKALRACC
# Test: Displacement of [3H]N-methylspiperone from human D4 receptor expressed in HEK293 cell membrane at 10 uM by competitive inhibition based analysis
# Type: cell membranes
# Settings: not given
row,Structure (SMILES),inhibition
1,Fc1cccc(CO[C@H]2CCCN(c3ccc(Cl)cc3)C2)c1,-10%
2,Cc1ccccc1CN1CCC[C@H](OCc2cccc(F)c2)C1,29.2%
3,Cc1ccccc1CO[C@H]1CCCN(Cc2ccc(Cl)cc2F)C1,-1.6%
4,Cc1cc(CO[C@H]2CCCN(c3ccc(Cl)cc3)C2)ccc1F,4.7%
5,Cc1cccc(CO[C@H]2CCCN(Cc3ncc4ccccn34)C2)n1,18.9%
6,Cc1ccc(CO[C@H]2CCCN(Cc3cccc(F)c3)C2)cc1,33.1%

# Same assay, conditions: filed as antagonist
row,Structure (SMILES),inhibition
1,COc1ccc(CO[C@H]2CCCN(Cc3cccc(C)c3)C2)cc1F,45.8%
2,Fc1cccc(CO[C@H]2CCCN(Cc3ccc(Cl)cc3F)C2)c1,44.9%
3,Cc1ccccc1CO[C@H]1CCCN(Cc2ccc(Cl)c(Cl)c2)C1,43.9%
4,FC(F)(F)Oc1cccc(CO[C@H]2CCCN(Cc3ncc4ccccn34)C2)c1,40.4%

# Molecular target: T2, D(4) dopamine receptor (Homo sapiens, UniProt P21917)
# T2 sequence (P21917 whole entry): T1 sequence (whole entry)
# Test: Displacement of [3H]N-methylspiperone from human D4 receptor expressed in HEK293 cell membrane by competitive inhibition based analysis
# Type: cell membranes
# Settings: not given
Structure (SMILES),IC50,Ki
Fc1ccc(COC2CCN(Cc3ccc4[nH]cnc4c3)CC2)cc1F,4.27 µM,4.28 µM
Cc1c(Cl)cccc1NC(=O)CN1CCC(OCc2ccc(Cl)c(F)c2)CC1,0.437 µM,0.441 µM

# Molecular target: D(1A) dopamine receptor (Homo sapiens, UniProt P21728)
# Sequence (P21728 whole entry): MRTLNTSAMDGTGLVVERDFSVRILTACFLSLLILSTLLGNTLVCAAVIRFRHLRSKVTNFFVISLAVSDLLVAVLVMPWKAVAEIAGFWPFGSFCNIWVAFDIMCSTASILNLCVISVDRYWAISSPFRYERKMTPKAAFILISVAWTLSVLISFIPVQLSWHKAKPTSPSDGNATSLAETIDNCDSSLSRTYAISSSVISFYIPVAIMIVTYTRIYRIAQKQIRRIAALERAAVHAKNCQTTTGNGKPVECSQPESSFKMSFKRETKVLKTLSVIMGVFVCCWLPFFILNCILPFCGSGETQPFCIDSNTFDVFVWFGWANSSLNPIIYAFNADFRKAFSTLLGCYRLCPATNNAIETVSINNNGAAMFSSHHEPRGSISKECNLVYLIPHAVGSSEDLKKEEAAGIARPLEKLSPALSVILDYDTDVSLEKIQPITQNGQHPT
# Test: Displacement of [3H]-SCH23390 from human D1 receptor expressed in HEK293 cell membrane at 10 uM by competitive inhibition based analysis
# Type: cell membranes
# Settings: not given
row,Structure (SMILES),inhibition
1,Fc1ccc(COC2CCN(Cc3ccc4[nH]cnc4c3)CC2)cc1F,< 50%
2,COc1ccc(CO[C@H]2CCCN(Cc3cccc(C)c3)C2)cc1F,< 50%
3,Cc1c(Cl)cccc1NC(=O)CN1CCC(OCc2ccc(Cl)c(F)c2)CC1,< 50%
4,Fc1cccc(CO[C@H]2CCCN(Cc3ccc(Cl)cc3F)C2)c1,< 50%
5,Fc1cccc(CO[C@H]2CCCN(c3ccc(Cl)cc3)C2)c1,< 50%
6,Cc1ccccc1CO[C@H]1CCCN(Cc2ccc(Cl)c(Cl)c2)C1,< 50%
7,Cc1ccccc1CN1CCC[C@H](OCc2cccc(F)c2)C1,< 50%
8,Cc1ccccc1CO[C@H]1CCCN(Cc2ccc(Cl)cc2F)C1,< 50%
9,Cc1cc(CO[C@H]2CCCN(c3ccc(Cl)cc3)C2)ccc1F,< 50%
10,Cc1cccc(CO[C@H]2CCCN(Cc3ncc4ccccn34)C2)n1,< 50%
11,FC(F)(F)Oc1cccc(CO[C@H]2CCCN(Cc3ncc4ccccn34)C2)c1,< 50%
12,Cc1ccc(CO[C@H]2CCCN(Cc3cccc(F)c3)C2)cc1,< 50%

# System: not listed separately
# Test: Drug uptake in rat brain at 0.25 mg/kg, iv measured on day 2 at 0.25 hrs post-dose
# Type: ADME, organism-based
# Settings: time 2 day, read-out: Drug uptake
row,Structure (SMILES),concentration at 48 h
1,Fc1ccc(COC2CCN(Cc3ccc4[nH]cnc4c3)CC2)cc1F,112 ng/g

# System: not listed separately
# Test: Ratio of drug level in rat brain to plasma at 0.25 mg/kg, iv measured on day 2 at 0.25 hrs post-dose
# Type: ADME, organism-based
# Settings: time 2 day, read-out: BPR
row,Structure (SMILES),Kp at 48 h
1,Fc1ccc(COC2CCN(Cc3ccc4[nH]cnc4c3)CC2)cc1F,16.1

# System: not listed separately
# Test: Plasma concentration in rat at 0.25 mg/kg, iv measured on day 2 at 0.25 hrs post-dose
# Type: ADME, organism-based
# Settings: time 2 day
row,Structure (SMILES),concentration at 48 h
1,Fc1ccc(COC2CCN(Cc3ccc4[nH]cnc4c3)CC2)cc1F,7 ng/mL

# System: not listed separately
# Test: Protein binding in human plasma assessed as unbound fraction
# Type: ADME, cell-free
# Settings: not given
row,Structure (SMILES),Fu
1,Fc1ccc(COC2CCN(Cc3ccc4[nH]cnc4c3)CC2)cc1F,22.9%

# System: not listed separately
# Test: Protein binding in mouse plasma assessed as unbound fraction
# Type: ADME, cell-free
# Settings: not given
row,Structure (SMILES),Fu
1,Fc1ccc(COC2CCN(Cc3ccc4[nH]cnc4c3)CC2)cc1F,40.1%

# Molecular target: T3, D(3) dopamine receptor (Homo sapiens, UniProt P35462)
# T3 sequence (P35462 whole entry): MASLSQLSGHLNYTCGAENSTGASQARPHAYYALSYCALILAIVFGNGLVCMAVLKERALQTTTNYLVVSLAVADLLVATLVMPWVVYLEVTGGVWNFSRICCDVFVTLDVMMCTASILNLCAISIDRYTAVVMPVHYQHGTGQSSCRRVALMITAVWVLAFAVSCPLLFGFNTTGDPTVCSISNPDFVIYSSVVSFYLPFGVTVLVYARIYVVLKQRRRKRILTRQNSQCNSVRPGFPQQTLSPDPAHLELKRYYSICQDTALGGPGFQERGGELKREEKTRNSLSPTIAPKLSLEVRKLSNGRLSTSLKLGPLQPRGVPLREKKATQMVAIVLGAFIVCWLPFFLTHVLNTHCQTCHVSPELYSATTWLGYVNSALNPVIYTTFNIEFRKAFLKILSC
# Test: Displacement of [3H]N-methylspiperone from human D3 receptor expressed in HEK293 cell membrane by competitive inhibition based analysis
# Type: cell membranes
# Settings: not given
row,Structure (SMILES),Ki
1,Fc1ccc(COC2CCN(Cc3ccc4[nH]cnc4c3)CC2)cc1F,4.08 µM
2,Cc1c(Cl)cccc1NC(=O)CN1CCC(OCc2ccc(Cl)c(F)c2)CC1,2.36 µM
3,Fc1cccc(CO[C@H]2CCCN(c3ccc(Cl)cc3)C2)c1,> 10 µM

# System: not listed separately
# Test: Half-life in rat at 0.25 mg/kg, iv measured for 24 hrs
# Type: ADME, organism-based
# Settings: in vivo
row,Structure (SMILES),t1/2
1,Fc1ccc(COC2CCN(Cc3ccc4[nH]cnc4c3)CC2)cc1F,1.2 h

# System: not listed separately
# Test: AUC in rat at 0.25 mg/kg, iv measured for 24 hrs
# Type: ADME, organism-based
# Parameters: time 24 hrs, dose 0.25 mg/kg, route iv
# Settings: in vivo
row,Structure (SMILES),AUC
1,Fc1ccc(COC2CCN(Cc3ccc4[nH]cnc4c3)CC2)cc1F,0.0656 µg·h/mL

# System: not listed separately
# Test: Volume of distribution at steady state in rat at 0.25 mg/kg, iv measured for 24 hrs
# Type: ADME, organism-based
# Settings: in vivo
row,Structure (SMILES),Vdss
1,Fc1ccc(COC2CCN(Cc3ccc4[nH]cnc4c3)CC2)cc1F,19.2 L/kg

# Molecular target: T4, D(1B) dopamine receptor (Homo sapiens, UniProt P21918)
# T4 sequence (P21918 whole entry): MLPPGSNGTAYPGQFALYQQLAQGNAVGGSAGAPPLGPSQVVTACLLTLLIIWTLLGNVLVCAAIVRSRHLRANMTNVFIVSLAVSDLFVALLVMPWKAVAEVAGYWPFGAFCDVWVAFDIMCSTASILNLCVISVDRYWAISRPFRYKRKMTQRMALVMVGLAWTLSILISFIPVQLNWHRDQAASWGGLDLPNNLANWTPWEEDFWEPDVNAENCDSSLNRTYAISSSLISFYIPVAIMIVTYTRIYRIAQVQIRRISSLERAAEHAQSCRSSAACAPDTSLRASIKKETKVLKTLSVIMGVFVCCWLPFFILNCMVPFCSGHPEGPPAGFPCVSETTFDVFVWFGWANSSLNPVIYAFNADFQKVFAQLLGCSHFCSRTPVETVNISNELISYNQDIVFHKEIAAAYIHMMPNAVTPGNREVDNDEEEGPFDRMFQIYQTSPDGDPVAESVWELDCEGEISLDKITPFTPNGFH
# Test: Displacement of [3H]-SCH23390 from human D5 receptor expressed in HEK293 cell membrane by competitive inhibition based analysis
# Type: cell membranes
# Settings: not given
row,Structure (SMILES),Ki
1,Cc1cc(CO[C@H]2CCCN(c3ccc(Cl)cc3)C2)ccc1F,> 10 µM

# Molecular target: T3, D(3) dopamine receptor
# Test: Displacement of [3H]N-methylspiperone from human D3 receptor expressed in HEK293 cell membrane at 10 uM by competitive inhibition based analysis
# Type: cell membranes
# Settings: not given
row,Structure (SMILES),inhibition
1,COc1ccc(CO[C@H]2CCCN(Cc3cccc(C)c3)C2)cc1F,< 50%
2,Fc1cccc(CO[C@H]2CCCN(Cc3ccc(Cl)cc3F)C2)c1,< 50%
3,Cc1ccccc1CO[C@H]1CCCN(Cc2ccc(Cl)c(Cl)c2)C1,< 50%
4,Cc1ccccc1CN1CCC[C@H](OCc2cccc(F)c2)C1,< 50%
5,Cc1ccccc1CO[C@H]1CCCN(Cc2ccc(Cl)cc2F)C1,< 50%
6,Cc1cc(CO[C@H]2CCCN(c3ccc(Cl)cc3)C2)ccc1F,< 50%
7,Cc1cccc(CO[C@H]2CCCN(Cc3ncc4ccccn34)C2)n1,< 50%
8,FC(F)(F)Oc1cccc(CO[C@H]2CCCN(Cc3ncc4ccccn34)C2)c1,< 50%
9,Cc1ccc(CO[C@H]2CCCN(Cc3cccc(F)c3)C2)cc1,< 50%

# Same assay, conditions: filed as antagonist
row,Structure (SMILES),inhibition
1,Fc1ccc(COC2CCN(Cc3ccc4[nH]cnc4c3)CC2)cc1F,57%
2,Cc1c(Cl)cccc1NC(=O)CN1CCC(OCc2ccc(Cl)c(F)c2)CC1,76.2%
3,Fc1cccc(CO[C@H]2CCCN(c3ccc(Cl)cc3)C2)c1,71%

# Molecular target: T4, D(1B) dopamine receptor
# Test: Displacement of [3H]-SCH23390 from human D5 receptor expressed in HEK293 cell membrane at 10 uM by competitive inhibition based analysis
# Type: cell membranes
# Settings: not given
row,Structure (SMILES),inhibition
1,Fc1ccc(COC2CCN(Cc3ccc4[nH]cnc4c3)CC2)cc1F,< 50%
2,COc1ccc(CO[C@H]2CCCN(Cc3cccc(C)c3)C2)cc1F,< 50%
3,Cc1c(Cl)cccc1NC(=O)CN1CCC(OCc2ccc(Cl)c(F)c2)CC1,< 50%
4,Fc1cccc(CO[C@H]2CCCN(Cc3ccc(Cl)cc3F)C2)c1,< 50%
5,Fc1cccc(CO[C@H]2CCCN(c3ccc(Cl)cc3)C2)c1,< 50%
6,Cc1ccccc1CO[C@H]1CCCN(Cc2ccc(Cl)c(Cl)c2)C1,< 50%
7,Cc1ccccc1CN1CCC[C@H](OCc2cccc(F)c2)C1,< 50%
8,Cc1ccccc1CO[C@H]1CCCN(Cc2ccc(Cl)cc2F)C1,< 50%
9,Cc1cccc(CO[C@H]2CCCN(Cc3ncc4ccccn34)C2)n1,< 50%
10,FC(F)(F)Oc1cccc(CO[C@H]2CCCN(Cc3ncc4ccccn34)C2)c1,< 50%
11,Cc1ccc(CO[C@H]2CCCN(Cc3cccc(F)c3)C2)cc1,< 50%

# Same assay, conditions: filed as antagonist
row,Structure (SMILES),inhibition
1,Cc1cc(CO[C@H]2CCCN(c3ccc(Cl)cc3)C2)ccc1F,66%

# Molecular target: D(2) dopamine receptor (Homo sapiens) (UniProt P14416)
# Sequence (P14416 whole entry): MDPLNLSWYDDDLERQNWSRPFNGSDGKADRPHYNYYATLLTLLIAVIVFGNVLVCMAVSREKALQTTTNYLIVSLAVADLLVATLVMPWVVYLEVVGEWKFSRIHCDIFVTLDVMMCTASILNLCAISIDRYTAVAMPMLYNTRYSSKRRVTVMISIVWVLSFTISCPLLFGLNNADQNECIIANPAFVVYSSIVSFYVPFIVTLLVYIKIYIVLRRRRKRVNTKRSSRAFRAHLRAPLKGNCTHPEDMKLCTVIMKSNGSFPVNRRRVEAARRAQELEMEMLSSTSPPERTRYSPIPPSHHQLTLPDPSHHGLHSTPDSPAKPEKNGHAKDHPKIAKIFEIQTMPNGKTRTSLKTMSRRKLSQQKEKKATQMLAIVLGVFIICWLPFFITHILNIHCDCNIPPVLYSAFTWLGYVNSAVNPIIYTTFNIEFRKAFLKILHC
# Test: Displacement of [3H]N-methylspiperone from human D2 receptor expressed in HEK293 cell membrane at 10 uM by competitive inhibition based analysis
# Type: cell membranes
# Settings: not given
row,Structure (SMILES),inhibition
1,Fc1ccc(COC2CCN(Cc3ccc4[nH]cnc4c3)CC2)cc1F,< 50%
2,COc1ccc(CO[C@H]2CCCN(Cc3cccc(C)c3)C2)cc1F,< 50%
3,Cc1c(Cl)cccc1NC(=O)CN1CCC(OCc2ccc(Cl)c(F)c2)CC1,< 50%
4,Fc1cccc(CO[C@H]2CCCN(Cc3ccc(Cl)cc3F)C2)c1,< 50%
5,Fc1cccc(CO[C@H]2CCCN(c3ccc(Cl)cc3)C2)c1,< 50%
6,Cc1ccccc1CO[C@H]1CCCN(Cc2ccc(Cl)c(Cl)c2)C1,< 50%
7,Cc1ccccc1CN1CCC[C@H](OCc2cccc(F)c2)C1,< 50%
8,Cc1ccccc1CO[C@H]1CCCN(Cc2ccc(Cl)cc2F)C1,< 50%
9,Cc1cc(CO[C@H]2CCCN(c3ccc(Cl)cc3)C2)ccc1F,< 50%
10,Cc1cccc(CO[C@H]2CCCN(Cc3ncc4ccccn34)C2)n1,< 50%
11,FC(F)(F)Oc1cccc(CO[C@H]2CCCN(Cc3ncc4ccccn34)C2)c1,< 50%
12,Cc1ccc(CO[C@H]2CCCN(Cc3cccc(F)c3)C2)cc1,< 50%

# — ChEMBL document CHEMBL5143585, “Discovery and characterization of benzyloxy piperidine based dopamine 4 receptor antagonists” (Bioorg Med Chem Lett, 2022)
